Consider ten compounds from doi:10.1101/2025.01.28.635346v1 (bioRxiv, 2025).

For one assay, the target named is integrin αvβ8 (Homo sapiens, UniProt P06756+P26012). Nature of the assay: ELISA competition assay, integrin αvβ8 binding to LAP. Background: ELISA stands for enzyme-linked immunosorbent assay.
Another assay has as its target integrin αvβ6 (Homo sapiens, UniProt P06756+P18564). Nature of the assay: ELISA competition assay, integrin αvβ6 binding to LAP.
The mark [1] stands for this setting: αvβ6 IC50, ELISA competition vs LAP, mean, n ≥ 3.

Read-outs that look alike come from different tables or passages of the source. Bridge positions count the residues as written; N and C are the ends. Peptide text beside a SMILES is read from it.

As to `CC[C@H](C)[C@@H]1NC(=O)[C@H](CO)NC(=O)CC[C@@H](C(=O)N[C@@H](CCCNC(=N)N)C(=O)NCC(=O)N[C@@H](CC(=O)O)C(=O)N[C@@H](CC(C)C)C(=O)N[C@@H](CCC(N)=O)C(=O)N[C@H](C(=O)N[C@@H](Cc2ccc(O)cc2)C(=O)N[C@@H](Cc2c[nH]c3ccccc23)C(=O)N2CCC[C@H]2C(=O)O)[C@@H](C)O)NC(=O)[C@H](CCCNC(=N)N)NC(=O)[C@H](CC(C)C)NC(=O)CNC(=O)[C@H](CO)NC(=O)[C@H](CC(=O)O)NC(=O)CNC1=O` [lassotide 18] (SIGDSGLRERGDLQTYWP-OH; lactam N-9; C-terminus assumed), the half-maximal inhibitory concentration (IC50) on integrin αvβ8 came out at 2.47 µM; at integrin αvβ6 (setting [1]) it was 3.2 µM.
The matching figures for `CC[C@H](C)[C@H](NC(=O)[C@H](CC(C)C)NC(=O)[C@H](CC(=O)O)NC(=O)CNC(=O)[C@H](CCCNC(=N)N)NC(=O)[C@H](C)NC(=O)[C@H](Cc1ccccc1)NC(=O)[C@H](Cc1ccc(O)cc1)NC(=O)[C@@H]1CCC(=O)NCC(=O)NCC(=O)N[C@@H](C)C(=O)NCC(=O)N[C@@H](Cc2c[nH]cn2)C(=O)N[C@@H](C(C)C)C(=O)N2CCC[C@H]2C(=O)N1)C(=O)N[C@@H](CO)C(=O)N[C@@H](Cc1ccccc1)C(=O)N[C@@H](Cc1ccc(O)cc1)C(=O)NCC(=O)O` [lassotide 19] (GGAGHVPEYFARGDLISFYG-OH; lactam N-8; C-terminus assumed): 0.024 µM and 0.066 µM.
`CC[C@H](C)[C@H](NC(=O)[C@H](CC(C)C)NC(=O)[C@H](CC(=O)O)NC(=O)CNC(=O)[C@H](CCCNC(=N)N)NC(=O)[C@@H](NC(=O)[C@H](Cc1ccccc1)NC(=O)[C@H](Cc1ccc(O)cc1)NC(=O)[C@@H]1CCC(=O)NCC(=O)NCC(=O)N[C@@H](CCCCN)C(=O)NCC(=O)N[C@@H](Cc2c[nH]cn2)C(=O)N[C@@H](C(C)C)C(=O)N2CCC[C@H]2C(=O)N1)C(C)C)C(=O)N[C@@H](CO)C(=O)N[C@@H](Cc1ccccc1)C(=O)N[C@@H](Cc1ccc(O)cc1)C(=O)NCC(=O)O` [lassotide 28] (GGKGHVPEYFVRGDLISFYG-OH; lactam N-8; C-terminus assumed): the concentration for half-maximal inhibition (IC50) on integrin αvβ8 is 0.048 µM; at integrin αvβ6 (setting [1]), 0.044 µM.
As to `CC[C@H](C)[C@H](NC(=O)[C@H](CC(C)C)NC(=O)[C@H](CC(=O)O)NC(=O)CNC(=O)[C@H](CCCNC(=N)N)NC(=O)[C@@H](NC(=O)[C@H](Cc1ccccc1)NC(=O)[C@H](Cc1ccc(O)cc1)NC(=O)[C@@H]1CCC(=O)NCC(=O)NCC(=O)N[C@@H](CCC(=O)O)C(=O)NCC(=O)N[C@@H](Cc2c[nH]cn2)C(=O)N[C@@H](C(C)C)C(=O)N2CCC[C@H]2C(=O)N1)C(C)C)C(=O)N[C@@H](CO)C(=O)N[C@@H](Cc1ccccc1)C(=O)N[C@@H](Cc1ccc(O)cc1)C(=O)NCC(=O)O` [lassotide 29] (GGEGHVPEYFVRGDLISFYG-OH; lactam N-8; C-terminus assumed), the 50% inhibitory concentration (IC50) at integrin αvβ8 stood at 0.047 µM; at integrin αvβ6 (setting [1]) it was 0.104 µM.
Turning to `CC[C@H](C)[C@H](NC(=O)[C@H](CC(C)C)NC(=O)[C@H](CC(=O)O)NC(=O)CNC(=O)[C@H](CCCNC(=N)N)NC(=O)[C@@H](NC(=O)[C@H](Cc1ccccc1)NC(=O)[C@H](Cc1ccc(O)cc1)NC(=O)[C@@H]1CCC(=O)NCC(=O)NCC(=O)N[C@@H](Cc2c[nH]cn2)C(=O)NCC(=O)N[C@@H](Cc2c[nH]cn2)C(=O)N[C@@H](C(C)C)C(=O)N2CCC[C@H]2C(=O)N1)C(C)C)C(=O)N[C@@H](CO)C(=O)N[C@@H](Cc1ccccc1)C(=O)N[C@@H](Cc1ccc(O)cc1)C(=O)NCC(=O)O` [lassotide 31] (GGHGHVPEYFVRGDLISFYG-OH; lactam N-8; C-terminus assumed), the results for the half-inhibitory concentration (IC50) at integrin αvβ8 and at integrin αvβ6 (setting [1]) were 0.027 µM and 0.021 µM, respectively.
Regarding `CC[C@H](C)[C@H](NC(=O)[C@H](CC(C)C)NC(=O)[C@H](CC(=O)O)NC(=O)CNC(=O)[C@H](CCCNC(=N)N)NC(=O)[C@@H](NC(=O)[C@H](Cc1ccccc1)NC(=O)[C@H](Cc1ccc(O)cc1)NC(=O)[C@@H]1CCC(=O)NCC(=O)NCC(=O)N[C@@H](CC(C)C)C(=O)NCC(=O)N[C@@H](Cc2c[nH]cn2)C(=O)N[C@@H](C(C)C)C(=O)N2CCC[C@H]2C(=O)N1)C(C)C)C(=O)N[C@@H](CO)C(=O)N[C@@H](Cc1ccccc1)C(=O)N[C@@H](Cc1ccc(O)cc1)C(=O)NCC(=O)O` [lassotide 32] (GGLGHVPEYFVRGDLISFYG-OH; lactam N-8; C-terminus assumed), the IC50 at integrin αvβ8 amounted to 0.032 µM; on integrin αvβ6 (setting [1]), 0.053 µM.
As for `CC[C@H](C)[C@H](NC(=O)[C@H](CC(C)C)NC(=O)[C@H](CC(=O)O)NC(=O)CNC(=O)[C@H](CCCNC(=N)N)NC(=O)[C@@H](NC(=O)[C@H](Cc1ccccc1)NC(=O)[C@H](Cc1ccc(O)cc1)NC(=O)[C@@H]1CCC(=O)NCC(=O)NCC(=O)N[C@@H]([C@@H](C)O)C(=O)NCC(=O)N[C@@H](Cc2c[nH]cn2)C(=O)N[C@@H](C(C)C)C(=O)N2CCC[C@H]2C(=O)N1)C(C)C)C(=O)N[C@@H](CO)C(=O)N[C@@H](Cc1ccccc1)C(=O)N[C@@H](Cc1ccc(O)cc1)C(=O)NCC(=O)O` [lassotide 34] (GGTGHVPEYFVRGDLISFYG-OH; lactam N-8; C-terminus assumed), the IC50 at integrin αvβ8 worked out at 0.028 µM; at integrin αvβ6 (setting [1]), 0.044 µM.
On to `CC(C)C[C@H](NC(=O)[C@H](CC(=O)O)NC(=O)CNC(=O)[C@H](CCCNC(=N)N)NC(=O)[C@@H](NC(=O)[C@H](Cc1ccccc1)NC(=O)[C@H](Cc1ccc(O)cc1)NC(=O)[C@@H]1CCC(=O)NCC(=O)NCC(=O)N[C@@H](CCCNC(=N)N)C(=O)NCC(=O)N[C@@H](CO)C(=O)N[C@@H](C(C)C)C(=O)N2CCC[C@H]2C(=O)N1)C(C)C)C(=O)N[C@@H](CCC(N)=O)C(=O)N[C@@H](CO)C(=O)N[C@@H](Cc1ccccc1)C(=O)N[C@@H](Cc1ccc(O)cc1)C(=O)NCC(=O)O` [lassotide 39] (GGRGSVPEYFVRGDLQSFYG-OH; lactam N-8; C-terminus assumed), for which the IC50 at integrin αvβ8 came out at 0.0051 µM; on integrin αvβ6 (setting [1]) it was 0.0031 µM.
The corresponding values for `CC(C)C[C@H](NC(=O)[C@H](CC(=O)O)NC(=O)CNC(=O)[C@H](CCCNC(=N)N)NC(=O)[C@@H](NC(=O)[C@H](Cc1ccccc1)NC(=O)[C@H](Cc1ccc(O)cc1)NC(=O)[C@@H]1CCC(=O)NCC(=O)NCC(=O)N[C@@H](CCCNC(=N)N)C(=O)NCC(=O)N[C@@H](CCC(N)=O)C(=O)N[C@@H](C(C)C)C(=O)N2CCC[C@H]2C(=O)N1)C(C)C)C(=O)N[C@@H](CCC(N)=O)C(=O)N[C@@H](CO)C(=O)N[C@@H](Cc1ccccc1)C(=O)N[C@@H](Cc1ccc(O)cc1)C(=O)NCC(=O)O` [lassotide 40] (GGRGQVPEYFVRGDLQSFYG-OH; lactam N-8; C-terminus assumed) are 0.0026 µM and 0.002 µM.
In the case of `CC[C@H](C)[C@@H]1NC(=O)[C@H](CO)NC(=O)CNC(=O)[C@H](CCCNC(=N)N)NC(=O)CNC(=O)CNC(=O)CC[C@@H](C(=O)N[C@@H](Cc2ccc(O)cc2)C(=O)N[C@@H](Cc2ccccc2)C(=O)N[C@@H](CCC(N)=O)C(=O)N[C@@H](CCCNC(=N)N)C(=O)NCC(=O)N[C@@H](CC(=O)O)C(=O)N[C@@H](CC(C)C)C(=O)N[C@@H](CCC(N)=O)C(=O)N[C@@H](CO)C(=O)N[C@@H](Cc2ccccc2)C(=O)N[C@@H](Cc2ccc(O)cc2)C(=O)NCC(=O)O)NC(=O)[C@@H]2CCCN2C1=O` [lassotide 44] (GGRGSIPEYFQRGDLQSFYG-OH; lactam N-8; C-terminus assumed), the IC50 on integrin αvβ6 was found to be 0.0014 µM.

Broadly, the IC50 is the concentration that inhibits the measured activity by half. Read a low IC50 as inhibition by little substance.
